target: CDK2 (human) (UniProt P24941); assay: Enzyme Assay

SMILES | IC50 [µM]
COc1ccc(F)cc1C(=O)Nc1c[nH]nc1-c1nc(C(F)(F)F)c(C)[nH]1 | < 1
Cc1[nH]c(-c2n[nH]cc2NC(=O)c2c(F)cc(F)cc2F)nc1C(F)(F)F | < 1
COc1ccc(S(C)(=O)=O)cc1C(=O)Nc1c[nH]nc1-c1nc(C(F)(F)F)c(C)[nH]1 | < 1
COc1cccc(Cl)c1C(=O)Nc1c[nH]nc1-c1nc(C(F)(F)F)c(C)[nH]1 | < 1
Cc1[nH]c(-c2n[nH]cc2NC(=O)c2ccco2)nc1C(F)(F)F | < 1
CCOc1ccccc1C(=O)Nc1c[nH]nc1-c1nc(C(F)(F)F)c(C)[nH]1 | < 1
Cc1cc(C(=O)Nc2c[nH]nc2-c2nc(C(F)(F)F)c(C)[nH]2)no1 | < 1
Cc1[nH]c(-c2n[nH]cc2NC(=O)CC2CC2)nc1C(F)(F)F | < 1
Cc1[nH]c(-c2n[nH]cc2NC(=O)c2onc3ccccc23)nc1C(F)(F)F | < 1
Cc1[nH]c(-c2n[nH]cc2NC(=O)c2ccc3c(c2)OCC3)nc1C(F)(F)F | < 1
Cc1[nH]c(-c2n[nH]cc2NC(=O)c2cc(CN3CCOCC3)c(C)o2)nc1C(F)(F)F | < 1
Cc1[nH]c(-c2n[nH]cc2NC(=O)C(C#N)C2CC2)nc1C(F)(F)F (stereo not drawn) | < 1
Cc1[nH]c(-c2n[nH]cc2NC(=O)c2cccc3c2OCC3)nc1C(F)(F)F | < 1
